Source: patent publication US11917960B2, “Methods to improve genetic transformation of sorghum” (Commonwealth Scientific and Industrial Research Organisation, priority 2016, dated 2024)
Marks after values point to notes of the source that are not given here.

Experiments:
Format in all cases: cell-based, Sorghum bicolor L
[1] = test system: DEC tissues/somatic embryos; test: Sensitivity of DEC tissues/somatic embryos to Geneticin; details: for Green DEC tissue survival (%): CIM + 1 mg/l LA, 6 weeks culture
Procedure: The experiment was carried out using 6 weeks-old uniform, healthy green-coloured DEC tissues about 5 mm in size and which contained some somatic embryos, produced after culturing on CIM containing 1 mg/l LA. The Geneticin levels used were 0, 15, 25, 35 and 45 mg/L, respectively. Three replicates each of 15 green DEC tissue pieces per plate were used for each concentration of Geneticin tested. The tissues were cultured for 6 weeks, being subcultured every two weeks onto the same medium, including the same Geneticin concentrations.
After 6 weeks of culture, the number of green DEC tissues that had survived was counted.
DEC tissues (about 5 mm) began to display geneticin stress symptoms on selective callus induction media (CIM with geneticin) within 3 weeks of culture. […] Very few calli (2-6) survived with dead patches. On this basis, geneticin at a final concentration of 25 mg/i was used in the callus induction media for 3 cycles (2 weeks each) and then increased to 30 mg/i for one cycle in shoot induction media (Table 6). Different concentrations of geneticin in CIM and SIM was deemed optimal in preventing shoot regeneration from non-transformed callus.

immature embryos (IEs) [2] = test: DEC tissue induction from immature embryos on CIM with or without LA; details: for Green tissue induction frequency: CIM + 1 mg/l LA, 6 weeks culture, mean ± SD, frequency calculated as a percentage, in %
Procedure: Plants of the grain sorghum of the inbred cultivar TX-430 (Miller 1984) were grown in a plant growth chamber (Conviron, PGC-20 flex) at 28±1° C. “day” temperature and 20±1° C. “night” temperature, with a. 16 hr photoperiod at a light intensity during the “day” of 900-1000 LUX. Panicles were covered with white translucent paper bags before flowering. Immature embryos were harvested from panicles 12-15 days after anthesis. Panicles were washed several times with water and developing seeds that were uniform in size were isolated and surface-sterilized using 20% commercial bleach mixed with 0.1% Tween-20 for 15-20 min. They were then washed with sterile distilled water 3 times each for 20 min, and blotted dry in a laminar flow hood. Immature embryos (IEs) ranging from 1.4 to 2.5 mm in length were aseptically isolated in the laminar flow hood and used as the starting tissue for preparation of green regenerative tissue.
The isolated IEs ranging from 1.4 to 2.5 mm in length were placed onto callus induction media (CIM) of various compositions with their scutellum facing upward. CIM modified to improve callus quality and induction frequency from immature embryos, as well as callus regeneration media, included α-Lipoic acid (1 to 5 mg/1), Melatonin (5 to 10 mg/l) and 2-Aminoidan-2-phosphonic acid HCl (1 to 2 mg/l) unless otherwise stated. For the development of green tissue, immature embryos were incubated under fluorescent light of approximately 45-50 μmol s^−1 m^−2 (16 h/day) in a tissue culture room at 24±2° C. After three days of culture, the root and shoot poles of the immature embryos were aseptically separated and re-inoculated on to the same media (CIM) and maintained under the same conditions as described above. They were subcultured every two weeks for 6 weeks by chopping the callus into 2-3 mm portions, re-inoculating on to the same media (CIM) and maintaining under the same conditions described above, after which time the tissue cultures were evaluated for callus quality, callus induction efficiency and transformation efficiency. Callus induction frequency was calculated as the number of calli obtained (˜5 mm) over total number of immature embryos inoculated, as a percentage.
Sets of IEs ranging from 1.4 to 2.5 mm in length, each set isolated from one panicle, were aseptically isolated and cultured on CIM medium as described in Example 1. Some sets were cultured with the addition of α-Lipoic acid (LA, 1 mg/I or 5 mg/), others without, in order to determine the effect of this agent.
After 6 weeks of culture including subculture every two weeks onto the same medium, DEC tissue induction frequency and quality were evaluated. […]

DEC tissue of sorghum = test: Regeneration frequency and number of shoots per DEC tissue on SIM and SRM; details: for Number of shoots/callus / Regeneration frequency (%): LA in SIM and SRM, mean ± SD
Procedure: After six weeks on the CIM, some uniform green-coloured DEC tissue of about 4-7 mm diameter were transferred on to shoot induction medium (SIM) and cultured for another 2-3 weeks in order to begin organogenesis. Tissues which had induced shoot buds were then transferred to shoot regeneration medium (SRM) and again cultured for 2-3 weeks. Regenerability of DEC tissue of different ages (2-6 months from initiation) was also tested on SRM medium comprising different concentrations of BAP (0.5-1.0 mg/l) and TDZ (0.5-1.0 mg/l). The number of shoots were counted and the regeneration frequency (i.e. the number of shoots/DEC tissue) was calculated after 3 weeks culture on SRM (total of approximately 5 weeks culture inclusive of culture on SIM and SRM). Individual shoots approximately 2-3 cm in length were transferred to shoot out growth (SOG) medium and cultured for another 2-3 weeks. Well-developed shoots (4-5 cm in length), were carefully separated from the cluster and transferred to root induction medium (RIM) and cultured for 3-4 weeks. For shoot induction to complete plant regeneration, 50-60 μmol s^−1 m^−2 (16 h/day) fluorescent light was used in the tissue culture room at 24±2° C. Shoots (about 8 cm in length) with numerous (often 15-20) healthy looking roots were transferred to soil and grown to maturity in a PC2 glasshouse at […]. The optimized culture medium composition for the different stages of plant transformation from callus induction to plant regeneration from green tissue induced from immature embryos is presented in Table 1.
Uniform ready-to-use high quality green DEC tissues (5 mm) each with nodular structures induced on CIM medium with or without added LA were transferred to shoot induction medium (SIM) with and without LA and cultured for another 2-3 weeks. Tissues with induced shoot buds were then transferred to shoot regeneration medium (SRM) with or without added LA and again cultured for 2 weeks. Regenerability of green tissues of different ages (2-6 months from initiation) was tested on SRM medium containing different concentrations of BAP (0.5-1.0 mg/l) and TDZ (0.5-1.0 mg/l). Tissues including the shoot buds were again cultured on hormone free medium (SOG) with or without LA. The number of shoots was counted after 2 weeks of culture on SRM and the regeneration frequency (number of shoots/DEC tissue) calculated.

immature embryos (IEs) [3] = test: DEC tissue yield on CIM with or without LA; details: for DEC yield in number ~5 mm each: CIM + 1 mg/l LA, 45 IEs
Description: After 4 to 12 weeks of culture, the number of DEC tissues obtained were counted. The number of DEC tissue pieces (˜5 mm) obtained at 12 weeks on CIM with LA was almost double when compared to using CIM without LA. Furthermore, the quality of the DEC tissues obtained on CIM with LA was improved compared to using the medium without LA.

[4] = after 8 weeks on CIM with G25 and 35 mg/l

CN[C@@H]1[C@@H](O)[C@@H](O[C@@H]2[C@@H](O)[C@H](O[C@H]3O[C@H]([C@@H](C)O)[C@@H](O)[C@H](O)[C@H]3N)[C@@H](N)C[C@H]2N)OC[C@]1(C)O [Geneticin] was tested, and the “Green DEC tissue survival (%)” value ([1]; Geneticin 15 mg/l) was 80 ± 1.0%, the “Green DEC tissue survival (%)” value ([1]; Geneticin 25 mg/l) was 4 ± 2.6% and the “Green DEC tissue survival (%)” value ([1]; Geneticin 35 mg/l) was 2 ± 0.5%. For the same compound, the “Green DEC tissue survival (%)” value ([1]; Geneticin 45 mg/l) was 0%, the Appearance of calli [1, 4] was “most of the calli turned dark brown in colour with no signs of survival” and the “Number of calli survived with dead patches” value [1, 4] was 2-6. For the same compound, the “Time until DEC tissues began to display geneticin stress symptoms” value ([1]; selective callus induction media (CIM with geneticin)) was ≤ 3 weeks.
In the case of O=C(O)CCCCC1CCSS1 (stereo not drawn) [LA, α-Lipoic acid], the “DEC tissue induction at higher concentration of LA compared to 1 mg/ml” value (immature embryos (IEs) [2]; LA 5 mg/l in CIM) is reported as “no significant further improvement”, the “Green tissue induction frequency” value (immature embryos (IEs) [2]; immature embryo size 1.5-2 mm) is reported as 79.0 ± 6.5 and the “Green tissue induction frequency” value (immature embryos (IEs) [2]; immature embryo size >2 mm) is reported as 59.0 ± 5.5. For the same compound, the “DEC tissue induction frequency compared to CIM without LA” value (immature embryos (IEs) [2]; small immature embryos (1.5-2 mm), significant at p<0.01) was “greater”, the Number of shoots/callus (DEC tissue of sorghum; DEC tissue age 2 months) was 40 ± 4.5^b and the “Regeneration frequency (%)” value (DEC tissue of sorghum; DEC tissue age 2 months) was 97.6 ± 2.5%. For the same compound, the Number of shoots/callus (DEC tissue of sorghum; DEC tissue age 4 months) was 40 ± 1.5^d, the “Regeneration frequency (%)” value (DEC tissue of sorghum; DEC tissue age 4 months) was 97 ± 2.6 % and the Number of shoots/callus (DEC tissue of sorghum; DEC tissue age 6 months) was 33 ± 2.5^f. For the same compound, the “Regeneration frequency (%)” value (DEC tissue of sorghum; DEC tissue age 6 months) was 94.3 ± 2.0 %, the “Regeneration frequency and number of shoots/DEC tissue for different ages of DEC tissue” value (DEC tissue of sorghum; LA included in both SIM and SRM, versus without LA) was “did not decline as much” and the “Number of DEC tissue pieces (~5 mm) compared to CIM without LA” value (immature embryos (IEs) [3]; 12 weeks on CIM with LA) was “almost double”. For the same compound, the “DEC yield in number ~5 mm each” value (immature embryos (IEs) [3]; culturing time 4 weeks) was 36, the “DEC yield in number ~5 mm each” value (immature embryos (IEs) [3]; culturing time 6 weeks) was 90 and the “DEC yield in number ~5 mm each” value (immature embryos (IEs) [3]; culturing time 8 weeks) was 120. The “DEC yield in number ~5 mm each” value (immature embryos (IEs) [3]; culturing time 10 weeks) was 218 and the “DEC yield in number ~5 mm each” value (immature embryos (IEs) [3]; culturing time 12 weeks) was 825.
